Data taken from patent publication US9873709B2 (priority 2013, dated 2018).

Assays:
[1] = test system: JAK1-dependent STAT6 phosphorylation downstream of IL-13 stimulation in BEAS-2B human bronchial epithelial cells; assay: cells; conditions: read-out: IL13-pSTAT6 BEASB2B IC50
[2] = test system: JAK1-dependent STAT6 phosphorylation downstream of IL-13 stimulation in TF-1 human erythroleukemia cells; assay: cells; conditions: TF-1, read-out: IL-13-pSTAT6 IC50

Row | IC50 [2] [nM] | Compound | IC50 [1] [nM]
1 | 33.9 | CN1CCC(N(C)C(=O)c2ccc(Nc3nc4c(N5CCC(O)(c6ccc(Cl)cc6)CC5)cccn4n3)cc2)CC1 [Example 1-17, 4-[[8-[4-(4-chlorophenyl)-4-hydroxy-1-piperidyl]-[1,2,4]triazolo[1,5-a]pyridin-2-yl]amino]-N-methyl-N-(1-methyl-4-piperidyl)benzamide] | 153
2 | 10.3 | CNC1CN(C(=O)c2ccc(Nc3nc4c(N5CCC(O)(c6ccc(Cl)cc6)CC5)cccn4n3)cc2)C1 [Example 1-47, [4-[[8-[4-(4-chlorophenyl)-4-hydroxy-1-piperidyl]-[1,2,4]triazolo[1,5-a]pyridin-2-yl]amino]phenyl]-[3-(methylamino)azetidin-1-yl]methanone] | 58.1
3 | 11.9 | O=C(NCCCN1CCOCC1)c1ccc(Nc2nc3c(N4CCC(O)(c5ccc(Cl)cc5)CC4)cccn3n2)cc1 [Example 1-98, 4-[[8-[4-(4-chlorophenyl)-4-hydroxy-1-piperidyl]-[1,2,4]triazolo[1,5-a]pyridin-2-yl]amino]-N-(3-morpholinopropyl) benzamide] | 42.4
4 |  | O=C(Cn1cc(Nc2nc3c(N4CCC(CO)(c5ccc(Cl)cc5)CC4)cccn3n2)cn1)N1CCC(CN2CCOCC2)CC1 [Example 1-289, 2-[4-[[8-[4-(4-chlorophenyl)-4-(hydroxymethyl)-1-piperidyl]-[1,2,4]triazolo[1,5-a]pyridin-2-yl]amino]pyrazol-1-yl]-1-[4-(morpholinomethyl)-1-piperidyl]ethanone] | 8.1
5 |  | CNC1CCN(C(=O)Cn2cc(Nc3nc4c(N5CCC(CO)(c6ccc(Cl)cc6)CC5)cccn4n3)cn2)CC1 [Example 1-291, 2-[4-[[8-[4-(4-chlorophenyl)-4-(hydroxymethyl)-1-piperidyl]-[1,2,4]triazolo[1,5-a]pyridin-2-yl]amino]pyrazol-1-yl]-1-[4-(methylamino)-1-piperidyl]ethanone] | 525
6 |  | O=C(NCCCN1CCOCC1)c1ccc(Nc2nc3c(C4C=CN(C(=O)CCC(F)(F)F)CC4)cccn3n2)cc1 (stereo not shown) [Example 1-295, N-(3-morpholinopropyl)-4-[[8-[1-(4,4,4-trifluorobutanoyl)-3,4-dihydro-2H-pyridin-4-yl]-[1,2,4]triazolo[1,5-a]pyridin-2-yl]amino]benzamide] | 729
7 |  | CN(CCC#N)C1CCN(C(=O)Cn2cc(Nc3nc4c(N5CCC(CO)(c6ccc(Cl)cc6)CC5)cccn4n3)cn2)CC1 [Example 1-296, 3-[[1-[2-[4-[[8-[4-(4-chlorophenyl)-4-(hydroxymethyl)-1-piperidyl]-[1,2,4]triazolo[1,5-a]pyridin-2-yl]amino]pyrazol-1-yl]acetyl]-4-piperidyl]-methyl-amino]propanenitrile] | 12.6
8 |  | CCOC(=O)N1CC=C(c2cccn3nc(Nc4ccc(C(=O)N5CCC(N6CCOCC6)CC5)cc4)nc23)CC1 [Example 2-18, ethyl 4-[2-[4-(4-morpholinopiperidine-1-carbonyl)anilino]-[1,2,4]triazolo[1,5-a]pyridin-8-yl]-3,6-dihydro-2H-pyridine-1-carboxylate] | 134
9 |  | CCOC(=O)N1CC=C(c2cccn3nc(Nc4ccc(C(=O)N5CCC(N6CC(C)OC(C)C6)CC5)cc4)nc23)CC1 (stereo not shown) [Example 2-63, ethyl 4-[2-[4-[4-(2,6-dimethylmorpholin-4-yl)piperidine-1-carbonyl]anilino]-[1,2,4]triazolo[1,5-a]pyridin-8-yl]-3,6-dihydro-2H-pyridine-1-carboxylate] | 151
10 |  | CCOC(=O)N1CC=C(c2cccn3nc(Nc4ccc(C(=O)N5CCC(N6CCOCC6)C5)cc4)nc23)CC1 (stereo not shown) [Example 2-66, ethyl 4-[2-[4-(3-morpholinopyrrolidine-1-carbonyl)anilino]-[1,2,4]triazolo[1,5-a]pyridin-8-yl]-3,6-dihydro-2H-pyridine-1-carboxylate] | 224
